Results published in patent US11690810B2, “Combination treatment of bacterial infection” (The Chinese University of Hong Kong, priority 2018, dated 2023).
≈ marks a conversion by molar mass, not a printed value.

How the values were obtained:
[1] = system: adherence of MRSA strain JE-2 to fibrinogen; assay: Fibrinogen-binding adherence assay (crystal violet); assay type: cell-based, Staphylococcus aureus; conditions: varying concentrations
[2] = system: adherence of MRSA strain JE-2 to HaCat keratinocytes; assay: Bacterial adherence to HaCaT keratinocytes; assay type: cell-based, Staphylococcus aureus; conditions: varying concentrations of baicalein
[3] = system: internalization of MRSA strain JE-2 by HaCat keratinocytes; assay: Internalization of S. aureus by HaCaT keratinocytes; assay type: cell-based, Staphylococcus aureus
[4] = system: bacterial aggregation of MRSA JE-2; assay: Aggregation assay of MRSA JE-2; assay type: cell-based, Staphylococcus aureus; conditions: JE-2; varying concentrations
[5] = system: S. aureus SA-APH2″-AAC6′ (APH2), resistant to gentamicin; assay: MIC and checkerboard (FIC) assay; conditions: Staphylococcus aureus; for MIC99: read-out: MIC 99.9
[6] = system: S. aureus SA-APH3′ (APH3), resistant to kanamycin; assay: MIC and checkerboard (FIC) assay; conditions: Staphylococcus aureus; for MIC99: read-out: MIC 99.9
[7] = system: S. aureus SA-ANT4′ (ANT4), resistant to fusidic acid; assay: MIC and checkerboard (FIC) assay; conditions: Staphylococcus aureus; for MIC99: read-out: MIC 99.9
[8] = system: S. aureus SA-RN4220-pUL5054 (RN4220); assay: MIC and checkerboard (FIC) assay; conditions: Staphylococcus aureus; for MIC99: read-out: MIC 99.9
[9] = system: S. aureus SA-1199B (NorA efflux pump overexpressed); assay: MIC and checkerboard (FIC) assay; conditions: for MIC99: read-out: MIC 99.9
[10] = system: MRSA SA-ST239; assay: MIC and checkerboard (FIC) assay; conditions: for MIC99: read-out: MIC 99.9
[11] = system: S. aureus ATCC25923 (methicillin sensitive); assay: MIC and checkerboard (FIC) assay; conditions: Staphylococcus aureus; for MIC90: ATCC25923; for MIC99: ATCC25923, read-out: MIC 99.9
[12] = system: panel of laboratory MRSA strains; assay: MIC and combination tests, panel of laboratory strains; conditions: tanshinone highest tested concentration 128 μg/ml
[13] = system: NorA overexpressed S. aureus; conditions: NorA overexpressed S. aureus, cited from earlier work
[14] = Solubility; conditions: MIC test medium
[15] = system: CA-MRSA strain ST30; assay: MIC and checkerboard (FIC) assay; assay type: cell-based, Staphylococcus aureus
[16] = system: Panton-Valentine leukocidin positive CA-MRSA strain ST30; assay type: in vivo, Balb/c mice; conditions: mouse, in vivo
[17] = system: clinical MRSA ST239; assay: Mouse pneumonia model, ST239 (neutropenic mice); assay type: in vivo, Balb/c mice; conditions: mouse, in vivo
[18] = system: methicillin sensitive Staphylococcus aureus ATCC25923; assay: Mouse pneumonia model, ATCC25923 (neutropenic mice); assay type: in vivo, Balb/c mice
[19] = physchem; conditions: saline or isotonic
[20] = system: CA MRSA W44; assay: MIC and checkerboard (FIC) assay
[21] = system: CA MRSA W45; assay: MIC and checkerboard (FIC) assay
[22] = system: CA MRSA W46; assay: MIC and checkerboard (FIC) assay
[23] = system: CA MRSA W47; assay: MIC and checkerboard (FIC) assay
[24] = system: CA MRSA W48; assay: MIC and checkerboard (FIC) assay
[25] = system: HA MRSA W231; assay: MIC and checkerboard (FIC) assay
[26] = system: HA MRSA W232; assay: MIC and checkerboard (FIC) assay
[27] = system: HA MRSA W233; assay: MIC and checkerboard (FIC) assay
[28] = system: HA MRSA W238; assay: MIC and checkerboard (FIC) assay
[29] = system: HA MRSA W239; assay: MIC and checkerboard (FIC) assay
[30] = system: clinical community-associated (CA) and hospital-associated (HA) MRSA strains; assay: MIC and combination tests, panel of clinical strains
[31] = Staphylococcus aureus, MRSA, read-out: MIC alone

O=c1cc(-c2ccccc2)oc2cc(O)c(O)c(O)c12 [Baicalein, 5,6,7-trihydroxyflavone]
fibrinogen-binding adherence [1]: minimal reduction in adherence | average decrease in the adherence of the WT strain to HaCaT cells [2]: 3.5 fold | decrease in the internalization as compared to the WT strain ([3]; 4 μg/ml (baicalein)): 2.7 fold | internalization lower as compared to the mutant ΔSrtA ([3]; 64 μg/ml of baicalein): 1.9 fold | reduction in internalization as compared to the WT strain ([3]; 64 μg/ml of baicalein): 5 fold | bacterial aggregation [4]: reduced | MIC90 [5]: 128 µg/mL | MIC99 [5]: > 512 µg/mL | MIC90 [6]: 64 µg/mL | MIC99 [6]: > 512 µg/mL | MIC90 [7]: 128 µg/mL | MIC99 [7]: > 512 µg/mL | MIC90 [8]: 64 µg/mL | MIC99 [8]: > 512 µg/mL | FIC ([9]; 1199B, Baicalein with ECG): 0.0625 | MIC combine ([9]; 1199B, Baicalein with ECG): 8 µg/mL | MIC90 ([9]; Staphylococcus aureus): 128 µg/mL | MIC99 ([9]; Staphylococcus aureus): > 512 µg/mL | MIC ([9]; Staphylococcus aureus, read-out: MIC alone, 1199B, Baicalein and ECG section): 512 µg/mL | MIC90 ([10]; Staphylococcus aureus, MRSA): 128 µg/mL | MIC99 ([10]; Staphylococcus aureus, MRSA): > 512 µg/mL | MIC90 [11]: 128 µg/mL | MIC99 [11]: > 512 µg/mL | activity against the tested MRSA strains when used alone [12]: relatively weak

COc1ccc2cc3[n+](cc2c1OC)CCc1cc2c(cc1-3)OCO2 [Berberine]
fibrinogen-binding adherence [1]: dose-dependent reduction of adherence | bacterial aggregation [4]: reduced | antimicrobial action (MIC) potentiated ([13]; with multidrug pump inhibitor 5′-methoxyhydnocarpin): 2 µg/mL | antimicrobial action (MIC) alone ([13]; without pump inhibitor): 32 µg/mL | MIC90 [5]: 256 µg/mL | MIC99 [5]: > 512 µg/mL | MIC90 [6]: 128 µg/mL | MIC99 [6]: > 512 µg/mL | MIC90 [7]: 256 µg/mL | MIC99 [7]: > 512 µg/mL | MIC90 [8]: 256 µg/mL | MIC99 [8]: > 512 µg/mL | MIC90 ([9]; Staphylococcus aureus): 256 µg/mL | MIC99 ([9]; Staphylococcus aureus): > 512 µg/mL | MIC90 ([10]; Staphylococcus aureus, MRSA): 256 µg/mL | MIC99 ([10]; Staphylococcus aureus, MRSA): > 512 µg/mL | MIC90 [11]: 256 µg/mL | MIC99 [11]: > 512 µg/mL | activity against the tested MRSA strains when used alone [12]: relatively weak

Cc1coc2c1C(=O)C(=O)c1c-2ccc2c(C)cccc12 [Tanshinone, tanshinone]
solubility [14]: poor | MIC90 [5]: > 128 µg/mL | MIC99 [5]: > 128 µg/mL | MIC90 [6]: > 128 µg/mL | MIC99 [6]: > 128 µg/mL | MIC90 [7]: > 128 µg/mL | MIC99 [7]: > 128 µg/mL | MIC90 [8]: > 128 µg/mL | MIC99 [8]: > 128 µg/mL | MIC90 ([9]; Staphylococcus aureus): > 128 µg/mL | MIC99 ([9]; Staphylococcus aureus): > 128 µg/mL | MIC90 ([10]; Staphylococcus aureus, MRSA): > 128 µg/mL | MIC99 ([10]; Staphylococcus aureus, MRSA): > 128 µg/mL | MIC90 [11]: > 128 µg/mL | MIC99 [11]: > 128 µg/mL | activity against the tested MRSA strains when used alone [12]: ineffective

CN[C@H](CC(C)C)C(=O)N[C@H]1C(=O)N[C@@H](CC(N)=O)C(=O)N[C@H]2C(=O)N[C@H]3C(=O)N[C@H](C(=O)N[C@H](C(=O)O)c4cc(O)cc(O)c4-c4cc3ccc4O)[C@H](O)c3ccc(c(Cl)c3)Oc3cc2cc(c3O[C@@H]2O[C@H](CO)[C@@H](O)[C@H](O)[C@H]2O[C@H]2C[C@](C)(N)[C@H](O)[C@H](C)O2)Oc2ccc(cc2Cl)[C@H]1O [Vancomycin, vancomycin, reference compound]
FIC ([15]; ST30, ECG+Kur+Van): 0.5 | MIC combine ([15]; ST30, ECG+Kur+Van): 0.5 µg/mL | MIC [15, 31]: 1 µg/mL | expression levels of TNFα, IL-1β, and IL-6 from lung homogenates [16]: significantly lowered | lung tissue profiles (histology) vs control [16]: fewer lesions | survival rate [16]: 100% | mean bacteria counts (left lung) [17]: 4.73±0.26 log CFU | lung tissue profiles (histology) vs control [18]: fewer lesions | mean bacteria counts (left lung) ([18]; vancomycin 60 mg/kg, ECG 120 mg/kg, kuraridin 120 mg/kg, 48 h, control 8.909±0.101): 6.064±0.425 log CFU | solubility [19]: 20 mg/mL (≈ 13.8 mM) | FIC ([10]; ST239, ECG+Kur+Van): 0.5 | MIC combine ([10]; ST239, ECG+Kur+Van): 0.5 µg/mL | MIC [10, 31]: 1 µg/mL | MIC [20, 31]: 1 µg/mL | FIC ([20]; W44, ECG+Kur+Van): 0.5 | MIC combine ([20]; W44, ECG+Kur+Van): 0.5 µg/mL | MIC [21, 31]: 1 µg/mL | FIC ([21]; W45, ECG+Kur+Van): 0.5 | MIC combine ([21]; W45, ECG+Kur+Van): 0.5 µg/mL | MIC [22, 31]: 1 µg/mL | FIC ([22]; W46, ECG+Kur+Van): 0.5 | MIC combine ([22]; W46, ECG+Kur+Van): 0.5 µg/mL | MIC [23, 31]: 1 µg/mL | FIC ([23]; W47, ECG+Kur+Van): 0.25 | MIC combine ([23]; W47, ECG+Kur+Van): 0.25 µg/mL | MIC [24, 31]: 1 µg/mL | FIC ([24]; W48, ECG+Kur+Van): 0.5 | MIC combine ([24]; W48, ECG+Kur+Van): 0.5 µg/mL | MIC [25, 31]: 1 µg/mL | MIC combine ([25]; W231, ECG+Kur+Van): 0.5 µg/mL | MIC [26, 31]: 1 µg/mL | FIC ([26]; W232, ECG+Kur+Van): 0.5 | MIC combine ([26]; W232, ECG+Kur+Van): 0.5 µg/mL | MIC [27, 31]: 1 µg/mL | FIC ([27]; W233, ECG+Kur+Van): 0.5 | MIC combine ([27]; W233, ECG+Kur+Van): 0.5 µg/mL | MIC [28, 31]: 1 µg/mL | FIC ([28]; W238, ECG+Kur+Van): 0.5 | MIC combine ([28]; W238, ECG+Kur+Van): 0.5 µg/mL | MIC [29, 31]: 1 µg/mL | FIC ([29]; W239, ECG+Kur+Van): 0.5 | MIC combine ([29]; W239, ECG+Kur+Van): 0.5 µg/mL | MIC ([30]; Staphylococcus aureus, MRSA, read-out: MIC of vancomycin alone): 1 µg/mL | MIC of vancomycin with ECG and kuraridin combined treatment ([30]; panel of clinical strains (Table 5)): 0.5 µg/mL
